Here are results for one compound from PMC6488038 (Journal of the American Chemical Society, 2018).

The test has as its system HCT116 cells. Description: Cell viability, Alamar Blue assay, HCT116. The following applies: 72 h. Format: cell-based, human.

As to `N#Cc1c2c(cc3c1C(=O)N[C@@H]1C3=C[C@H](O)[C@@H](O)[C@H]1O)OCO2` [compound 46, 7cyanolycoricidine], the “activity compared to lycoricidine (3)” value is on record as “increased activity”.
